Test system: OTA aptabeacon (DNA, aptamer) CGCGCTGGATCGGGTGTGGGTGGCGTAAAGGGAGCATCGGACACAGCGCG
Assay: molecular beacon fluorescence, real-time PCR cycler
Conditions: 120 mM NaCl, 5 mM KCl, 20 mM CaCl2, 10 mM Tris pH 8.5, 30 °C

SMILES | Kd (1 µM aptabeacon, calculated from Kd = [A][L]/[AL]) | binding (2 µM toxin, peak area 67–88% lower than OTA)
C[C@@H]1Cc2c(Cl)cc(C(=O)N[C@@H](Cc3ccccc3)C(=O)O)c(O)c2C(=O)O1 | 800 nM | –
C[C@@H]1Cc2ccc(C(=O)N[C@@H](Cc3ccccc3)C(=O)O)c(O)c2C(=O)O1 | – | weak

Source: PMC4379526 (2015)
